The structures appear in SMILES notation.

This note sets out measurements from patent US11203591B2, “Substituted 6-azabenzimidazole compounds” (Gilead Sciences, Inc., priority 2018, dated 2021).

The target in the first experiment is human HPK1 (MAP4K1) (Homo sapiens (Human), UniProt Q92918). Briefly: HPK1 IC50 Assay (TR-FRET peptide phosphorylation). The note with it: 0.15 nM HPK1, 10 μM ATP, 1 μM STK S1 peptide substrate; geometric mean. The class given is biochemical. In outline: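 Readout: TR-FRET (665 nm/620 nm) after EDTA stop, detecting STK S1 peptide (1 μM) phosphorylation by 0.15 nM HPK1 kinase domain, ATP-pre-activated, at 10 μM ATP over 3 h, 25° C, pH 7.0. IC50s from four-parameter variable-slope fits, normalized to staurosporine and DMSO, averaged geometrically.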
Sequence of human HPK1 (MAP4K1) (Q92918 17-274): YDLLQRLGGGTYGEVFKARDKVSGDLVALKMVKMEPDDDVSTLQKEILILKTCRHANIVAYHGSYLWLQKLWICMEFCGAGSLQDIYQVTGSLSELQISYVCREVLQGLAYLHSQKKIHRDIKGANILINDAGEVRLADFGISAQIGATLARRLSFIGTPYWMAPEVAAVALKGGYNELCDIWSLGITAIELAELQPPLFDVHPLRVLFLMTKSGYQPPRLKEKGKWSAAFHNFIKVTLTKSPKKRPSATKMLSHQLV
A general note: Time-resolved FRET reads energy transfer from a long-lived donor to a nearby acceptor.
Broadly, the IC50 is the concentration that gives 50% inhibition. `CC(C)n1cnc2cc(-c3ccc4c(c3)N([C@H]3C[C@@](C)(N5CCCCC5)C3)C(=O)C4(C)C)nc(Nc3cc(C(=O)NCC(F)F)c(Cl)cc3F)c21` [Example 289, 2-chloro-N-(2,2-difluoroethyl)-5-((6-(3,3-dimethyl-1-((1s,3s)-3-methyl-3-(piperidin-1-yl)cyclobutyl)-2-oxoindolin-6-yl)-3-isopropyl-3H-imidazo[4,5-c]pyridin-4-yl)amino)-4-fluorobenzamide] registered a 50% inhibitory concentration (IC50) of 0.07 nM.
On the same count and under the same terms, with `Cc1c(C(=O)NCC(F)F)cc(Nc2nc(-c3cc4c(nc3F)C(C)(C)C(=O)N4[C@H]3C[C@@](C)(N4CCCCC4)C3)cc3ncn(C(C)C)c23)c(F)c1F` [Example 269, N-(2,2-difluoroethyl)-3,4-difluoro-5-((6-(5-fluoro-3,3-dimethyl-1-((1s,3s)-3-methyl-3-(piperidin-1-yl)cyclobutyl)-2-oxo-2,3-dihydro-1H-pyrrolo[3,2-b]pyridin-6-yl)-3-isopropyl-3H-imidazo[4,5-c]pyridin-4-yl)amino)-2-methylbenzamide] the figure was 0.07 nM.

Still in this experiment, the particulars now being: recombinant HPK1 kinase domain 0.15 nM, 10 μM ATP, 1 μM STK S1 peptide; geometric mean of multiple experiments.
Turning to `CNC(=O)c1cc(Nc2nc(-c3ccc4c(c3)N([C@H]3C[C@@H](N5CCCCC5)C3)C(=O)C43CCN(CC(F)F)CC3)cc3ncn(C(C)C)c23)c(F)cc1C` [Example 61], the half-inhibitory concentration (IC50) is 0.2 nM.
With `CNC(=O)c1cc(Nc2nc(-c3ccc4c(c3)N([C@H]3C[C@@H](N5CCCC6(C5)CC6(F)F)C3)C(=O)C43CCN(C(C)=O)CC3)cc3ncn(C4CC4)c23)ccc1C` (some centres unmarked) [Example 163], the IC50 came to 0.1 nM.
For `Cc1cc(F)c(Nc2nc(-c3cnc4c(c3)N([C@H]3C[C@@H](N5CCCCC5)C3)C(=O)C4(C)C)cc3ncn(C(C)C)c23)cc1C(=O)NC1(C(F)F)CC1` [Example 67], the IC50 came to 0.3 nM.
Consider `Cc1ccc(Nc2nc(-c3ccc4c(c3)N([C@H]3C[C@@H](NC(=O)C(C)(C)C)C3)C(=O)C4(C)C)cc3ncn(C(C)C)c23)cc1C(N)=O` [Example 135, 5-((6-(3,3-dimethyl-2-oxo-1-((1s,3s)-3-pivalamidocyclobutyl)indolin-6-yl)-3-isopropyl-3H-imidazo[4,5-c]pyridin-4-yl)amino)-2-methylbenzamide], for which the half-maximal inhibitory concentration (IC50) came to 0.6 nM.
Consider `CCNC(=O)c1ccc(F)c(Nc2nc(-c3cnc4c(c3)N([C@H]3C[C@@](C)(N5CCCCC5)C3)C(=O)C4(C)C)cc3ncn(C(C)C)c23)c1` [Example 223, 3-((6-(3,3-Dimethyl-1-((1s,3s)-3-methyl-3-(piperidin-1-yl)cyclobutyl)-2-oxo-2,3-dihydro-1H-pyrrolo[3,2-b]pyridin-6-yl)-3-isopropyl-3H-imidazo[4,5-c]pyridin-4-yl)amino)-N-ethyl-4-fluorobenzamide], for which the IC50 amounted to 0.2 nM.
Regarding `Cc1ccc(Nc2nc(-c3ccc4c(c3)N([C@H]3C[C@@H](N5CCCCC5)C3)C(=O)C43CCOCC3)cc3ncn(C(C)C)c23)cc1C(=O)NC1CCC1` [Example 23], the IC50 came out at 0.2 nM.
Regarding `CNC(=O)c1cc(Nc2nc(-c3ccc4c(c3)N([C@H]3C[C@@H](N5C[C@H]6CC[C@@H]5C6)C3)C(=O)C43CCN(C(=O)C4COC4)CC3)cc3ncn(C4CC4)c23)ccc1C` [Example 42], the IC50 was 0.06 nM.
Take `CNC(=O)c1cc(Nc2nc(-c3ccc4c(c3)N([C@H]3C[C@@H](N5CCCCC5)C3)C(=O)C43CCN(C(C)=O)CC3)cc3ncn(C(C)C)c23)ccc1C` [Example 46]: the half-maximal inhibitory concentration (IC50) is 0.1 nM.
On to `CCNC(=O)c1cc(Nc2nc(-c3ccc4c(c3)N([C@H]3C[C@@H](N5CCCCC5)C3)C(=O)C43CCOCC3)cc3ncn(C(C)C)c23)ccc1C` [Example 22], for which the 50% inhibitory concentration (IC50) turned out to be 0.07 nM.
For `Cc1c(F)c(Nc2nc(-c3cnc4c(c3)N([C@H]3C[C@@](C)(N5CCCCC5)C3)C(=O)C4(C)C)cc3ncn(C(C)C)c23)cc(C(=O)NC2(C(F)F)CC2)c1Cl` [Example 264, 2-chloro-N-(1-(difluoromethyl)cyclopropyl)-5-((6-(3,3-dimethyl-1-((1s,3s)-3-methyl-3-(piperidin-1-yl)cyclobutyl)-2-oxo-2,3-dihydro-1H-pyrrolo[3,2-b]pyridin-6-yl)-3-isopropyl-3H-imidazo[4,5-c]pyridin-4-yl)amino)-4-fluoro-3-methylbenzamide], the half-maximal inhibitory concentration (IC50) was determined as 0.2 nM.
Consider `CNC(=O)c1cc(Nc2nc(-c3ccc4c(c3)N([C@H]3C[C@@H](N5CCCCC5)C3)CC4(C)C)cc3ncn(C4CC4)c23)ccc1C` [Example 58], for which the IC50 was determined as 0.6 nM.
The same measure, in the same setting: with `Cc1cc(F)c(Nc2nc(-c3cnc4c(c3)N([C@H]3C[C@@H](N5CCCCC5)C3)C(=O)C4(C)C)cc3ncn(C(C)C)c23)cc1C(=O)NC1(CF)CC1` [Example 134] the figure was 0.3 nM; with `CC[C@H](C)n1cnc2cc(-c3ccc4c(c3)N([C@H]3C[C@@H](N5CCC6(C5)CC6(F)F)C3)C(=O)C43CCN(C(C)=O)CC3)nc(Nc3ccc(C)c(C(=O)NC)c3)c21` (some centres unmarked) [Example 158], 0.2 nM.
For `Cc1ccc(Nc2nc(-c3ccc4c(c3)N([C@H]3C[C@@H](N5CCCCC5)C3)C(=O)C4(C)C)cc3ncn(C(C)C)c23)cc1C(=O)N[C@H](C)C(F)F` [Example 21B, N-(1,1-difluoropropan-2-yl)-5-((6-(3,3-dimethyl-2-oxo-1-((1s,3s)-3-(piperidin-1-yl)cyclobutyl)indolin-6-yl)-3-isopropyl-3H-imidazo[4,5-c]pyridin-4-yl)amino)-2-methylbenzamide], the IC50 turned out to be 0.07 nM.
As for `CC(=O)N1CCC2(CC1)C(=O)N([C@H]1C[C@@H](N3CCCCC3)C1)c1cc(-c3cc4ncn(C(C)C)c4c(Nc4cc(C(=O)NC(C)C)c(Cl)cc4F)n3)ccc12` [Example 89], the IC50 worked out at 0.2 nM.
Still for that read-out and setting: with `CC(C)NC(=O)c1cc(Nc2nc(-c3ccc4c(c3)N([C@H]3C[C@@H](N5CCCCC5)C3)C(=O)C4(C)C)cc3ncn(C(C)C)c23)c(F)cc1Cl` [Example 117] the figure was 0.2 nM; with `CC(=O)N1CCC2(CC1)C(=O)N([C@H]1C[C@@H](N3CCCCC3)C1)c1cc(-c3cc4ncn(C(C)C)c4c(Nc4ccc(C)c(C(=O)NC(C)C)c4)n3)ccc12` [Example 83, 5-((6-(1′-acetyl-2-oxo-1-((1s,3s)-3-(piperidin-1-yl)cyclobutyl)spiro[indoline-3,4′-piperidin]-6-yl)-3-isopropyl-3H-imidazo[4,5-c]pyridin-4-yl)amino)-N-isopropyl-2-methylbenzamide], 0.1 nM.
The same measure, in the same setting: as for `CCn1cnc2cc(-c3ccc4c(c3)N([C@H]3C[C@@H](NC(=O)C(C)(C)C)C3)C(=O)C4(C)C)nc(Nc3ccc(C)c(C(N)=O)c3)c21` [Example 133], the figure is 0.9 nM.
In the case of `Cc1ccc(Nc2nc(-c3ccc4c(c3)N([C@H]3C[C@@H](N5CCCCC5)C3)C(=O)C4(C)C)cc3ncn(C(C)C)c23)cc1C(=O)N[C@H](C)CF` [Example 30], the IC50 turned out to be 0.1 nM.
Turning to `Cc1c(C(=O)NC2(C(F)F)CC2)cc(Nc2nc(-c3ccc4c(c3)N([C@H]3C[C@@H](N5CCCCC5)C3)C(=O)C4(C)C)cc3ncn(C(C)C)c23)c(F)c1F` [Example 144], the IC50 was 0.07 nM.
For `CNC(=O)c1cc(Nc2nc(-c3ccc4c(c3)N([C@H]3C[C@@H](N5CCCCC5)C3)C(=O)C4(C)O)cc3ncn(C(C)C)c23)ccc1Cl` (some centres unmarked) [Example 63], the IC50 turned out to be 0.1 nM.
